Results published in PubChem BioAssay (NCI).
Several values for one entry are separate records, joined by “and”; a condition that tells them apart may be missing. Equal values may be shown once.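 Growth conditions: 96-well plates. Treatment: test compound, 48 hours, 5 concentrations. Analysis: linear interpolation between bracketing concentrations; unreached endpoints set to highest concentration. At the GI50, growth is halved. TGI: concentration producing complete growth inhibition.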

Tested on: XF 498 CNS
Assay: DTP human tumour cell line panel, 48 h

| SMILES | TGI |
| --- | --- |
| Clc1cccc(Cl)c1C1SCc2nc3ccccc3n21 (stereo not given) | > 100 µM |
| COc1cc2c(cc1OC)C1[C@@H](c3ccccc3)OCN1CC2 (stereo not given in full) | > 100 µM |

Tested on: SK-MEL-5 melanoma
Assay: DTP human tumour cell line panel, 48 h

| SMILES | TGI |
| --- | --- |
| COC1OC(COC(C)=O)C(OC(C)=O)C(OC(C)=O)C1NC(=O)N(CCCl)N=O (stereo not given) | > 100 µM |
| CNc1ccccc1-c1nc2ccccc2c(=O)o1 | > 100 µM |
| COc1cc(OC)c2c(c1)C(=O)C(CC1(C)OCCCO1)=CC2=O | 20.9 µM |
| Clc1cccc(Cl)c1C1SCc2nc3ccccc3n21 (stereo not given) | 67 µM |
| COc1cc2c(cc1OC)C1[C@@H](c3ccccc3)OCN1CC2 (stereo not given in full) | > 100 µM |

Tested on: COLO 205 colon
Assay: DTP human tumour cell line panel, 48 h

| SMILES | TGI |
| --- | --- |
| COC1OC(COC(C)=O)C(OC(C)=O)C(OC(C)=O)C1NC(=O)N(CCCl)N=O (stereo not given) | > 100 µM |
| CNc1ccccc1-c1nc2ccccc2c(=O)o1 | > 100 µM |
| COc1cc(OC)c2c(c1)C(=O)C(CC1(C)OCCCO1)=CC2=O | 27.5 µM |
| Clc1cccc(Cl)c1C1SCc2nc3ccccc3n21 (stereo not given) | > 100 µM |
| COc1cc2c(cc1OC)C1[C@@H](c3ccccc3)OCN1CC2 (stereo not given in full) | > 100 µM |

Tested on: IGROV1 ovarian
Assay: DTP human tumour cell line panel, 48 h

| SMILES | TGI |
| --- | --- |
| COC1OC(COC(C)=O)C(OC(C)=O)C(OC(C)=O)C1NC(=O)N(CCCl)N=O (stereo not given) | > 100 µM |
| CNc1ccccc1-c1nc2ccccc2c(=O)o1 | > 100 µM |
| COc1cc(OC)c2c(c1)C(=O)C(CC1(C)OCCCO1)=CC2=O | 32.2 µM |
| Clc1cccc(Cl)c1C1SCc2nc3ccccc3n21 (stereo not given) | > 100 µM |
| COc1cc2c(cc1OC)C1[C@@H](c3ccccc3)OCN1CC2 (stereo not given in full) | > 100 µM |

Tested on: NCI-H23 lung
Assay: DTP human tumour cell line panel, 48 h

| SMILES | TGI |
| --- | --- |
| COC1OC(COC(C)=O)C(OC(C)=O)C(OC(C)=O)C1NC(=O)N(CCCl)N=O (stereo not given) | > 100 µM |
| COc1cc(OC)c2c(c1)C(=O)C(CC1(C)OCCCO1)=CC2=O | 27 µM |
| Clc1cccc(Cl)c1C1SCc2nc3ccccc3n21 (stereo not given) | > 100 µM |
| COc1cc2c(cc1OC)C1[C@@H](c3ccccc3)OCN1CC2 (stereo not given in full) | > 100 µM |

Tested on: HL-60(TB) leukemia
Assay: DTP human tumour cell line panel, 48 h

| SMILES | TGI |
| --- | --- |
| COC1OC(COC(C)=O)C(OC(C)=O)C(OC(C)=O)C1NC(=O)N(CCCl)N=O (stereo not given) | 74 µM and > 100 µM |
| CNc1ccccc1-c1nc2ccccc2c(=O)o1 | > 100 µM |
| COc1cc(OC)c2c(c1)C(=O)C(CC1(C)OCCCO1)=CC2=O | 7.88 µM |
| Clc1cccc(Cl)c1C1SCc2nc3ccccc3n21 (stereo not given) | > 100 µM |
| COc1cc2c(cc1OC)C1[C@@H](c3ccccc3)OCN1CC2 (stereo not given in full) | > 89.8 µM |

Tested on: SNB-75 CNS
Assay: DTP human tumour cell line panel, 48 h

| SMILES | TGI |
| --- | --- |
| COC1OC(COC(C)=O)C(OC(C)=O)C(OC(C)=O)C1NC(=O)N(CCCl)N=O (stereo not given) | > 100 µM |
| CNc1ccccc1-c1nc2ccccc2c(=O)o1 | 97.6 µM |
| COc1cc(OC)c2c(c1)C(=O)C(CC1(C)OCCCO1)=CC2=O | 25.3 µM |
| Clc1cccc(Cl)c1C1SCc2nc3ccccc3n21 (stereo not given) | > 100 µM |
| COc1cc2c(cc1OC)C1[C@@H](c3ccccc3)OCN1CC2 (stereo not given in full) | > 100 µM |

Tested on: SF-295 CNS
Assay: DTP human tumour cell line panel, 48 h

| SMILES | TGI |
| --- | --- |
| COC1OC(COC(C)=O)C(OC(C)=O)C(OC(C)=O)C1NC(=O)N(CCCl)N=O (stereo not given) | > 100 µM |
| CNc1ccccc1-c1nc2ccccc2c(=O)o1 | > 100 µM |
| COc1cc(OC)c2c(c1)C(=O)C(CC1(C)OCCCO1)=CC2=O | 27.8 µM |
| Clc1cccc(Cl)c1C1SCc2nc3ccccc3n21 (stereo not given) | > 100 µM |
| COc1cc2c(cc1OC)C1[C@@H](c3ccccc3)OCN1CC2 (stereo not given in full) | > 100 µM |

Tested on: MOLT-4 leukemia
Assay: DTP human tumour cell line panel, 48 h

| SMILES | GI50 | TGI |
| --- | --- | --- |
| COC1OC(COC(C)=O)C(OC(C)=O)C(OC(C)=O)C1NC(=O)N(CCCl)N=O (stereo not given) | 26.2 µM and > 100 µM | > 100 µM |
| CNc1ccccc1-c1nc2ccccc2c(=O)o1 |  | > 100 µM |
| COc1cc(OC)c2c(c1)C(=O)C(CC1(C)OCCCO1)=CC2=O |  | 30.6 µM |
| Clc1cccc(Cl)c1C1SCc2nc3ccccc3n21 (stereo not given) |  | > 100 µM |
| COc1cc2c(cc1OC)C1[C@@H](c3ccccc3)OCN1CC2 (stereo not given in full) |  | > 100 µM |

Tested on: UACC-62 melanoma
Assay: DTP human tumour cell line panel, 48 h

| SMILES | TGI |
| --- | --- |
| COC1OC(COC(C)=O)C(OC(C)=O)C(OC(C)=O)C1NC(=O)N(CCCl)N=O (stereo not given) | > 100 µM |
| COc1cc(OC)c2c(c1)C(=O)C(CC1(C)OCCCO1)=CC2=O | 16.2 µM |
| Clc1cccc(Cl)c1C1SCc2nc3ccccc3n21 (stereo not given) | > 100 µM |
| COc1cc2c(cc1OC)C1[C@@H](c3ccccc3)OCN1CC2 (stereo not given in full) | > 100 µM |

Tested on: CAKI-1 renal
Assay: DTP human tumour cell line panel, 48 h

| SMILES | TGI |
| --- | --- |
| COC1OC(COC(C)=O)C(OC(C)=O)C(OC(C)=O)C1NC(=O)N(CCCl)N=O (stereo not given) | > 100 µM |
| CNc1ccccc1-c1nc2ccccc2c(=O)o1 | > 100 µM |
| COc1cc(OC)c2c(c1)C(=O)C(CC1(C)OCCCO1)=CC2=O | 18.8 µM |
| Clc1cccc(Cl)c1C1SCc2nc3ccccc3n21 (stereo not given) | > 100 µM |
| COc1cc2c(cc1OC)C1[C@@H](c3ccccc3)OCN1CC2 (stereo not given in full) | > 100 µM |

Tested on: DLD-1 colon
Assay: DTP human tumour cell line panel, 48 h

| SMILES | TGI |
| --- | --- |
| COC1OC(COC(C)=O)C(OC(C)=O)C(OC(C)=O)C1NC(=O)N(CCCl)N=O (stereo not given) | > 100 µM |
| CNc1ccccc1-c1nc2ccccc2c(=O)o1 | > 100 µM |
| COc1cc(OC)c2c(c1)C(=O)C(CC1(C)OCCCO1)=CC2=O | 17.4 µM |
| Clc1cccc(Cl)c1C1SCc2nc3ccccc3n21 (stereo not given) | > 100 µM |
| COc1cc2c(cc1OC)C1[C@@H](c3ccccc3)OCN1CC2 (stereo not given in full) | > 100 µM |

Tested on: KM20L2 colon
Assay: DTP human tumour cell line panel, 48 h

| SMILES | TGI |
| --- | --- |
| COC1OC(COC(C)=O)C(OC(C)=O)C(OC(C)=O)C1NC(=O)N(CCCl)N=O (stereo not given) | > 100 µM |
| CNc1ccccc1-c1nc2ccccc2c(=O)o1 | > 100 µM |
| COc1cc(OC)c2c(c1)C(=O)C(CC1(C)OCCCO1)=CC2=O | 27.7 µM |
| Clc1cccc(Cl)c1C1SCc2nc3ccccc3n21 (stereo not given) | > 100 µM |
| COc1cc2c(cc1OC)C1[C@@H](c3ccccc3)OCN1CC2 (stereo not given in full) | > 100 µM |

Tested on: M14 melanoma
Assay: DTP human tumour cell line panel, 48 h

| SMILES | TGI |
| --- | --- |
| COC1OC(COC(C)=O)C(OC(C)=O)C(OC(C)=O)C1NC(=O)N(CCCl)N=O (stereo not given) | > 100 µM |
| CNc1ccccc1-c1nc2ccccc2c(=O)o1 | > 100 µM |
| COc1cc(OC)c2c(c1)C(=O)C(CC1(C)OCCCO1)=CC2=O | 26 µM |
| Clc1cccc(Cl)c1C1SCc2nc3ccccc3n21 (stereo not given) | > 100 µM |
| COc1cc2c(cc1OC)C1[C@@H](c3ccccc3)OCN1CC2 (stereo not given in full) | > 100 µM |

Tested on: OVCAR-8 ovarian
Assay: DTP human tumour cell line panel, 48 h

| SMILES | TGI |
| --- | --- |
| COC1OC(COC(C)=O)C(OC(C)=O)C(OC(C)=O)C1NC(=O)N(CCCl)N=O (stereo not given) | > 100 µM |
| CNc1ccccc1-c1nc2ccccc2c(=O)o1 | > 100 µM |
| COc1cc(OC)c2c(c1)C(=O)C(CC1(C)OCCCO1)=CC2=O | 22.5 µM |
| Clc1cccc(Cl)c1C1SCc2nc3ccccc3n21 (stereo not given) | > 100 µM |
